Experiment in all cases: Bliss interaction score (quartile over a dose matrix) (fitness difference); higher = more antagonism (negative = synergy)
In one assay the test system is S. aureus Newman. The method, boiled down:
(§1)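 The Bliss score is observed minus expected fitness, where expected fitness is the product of the single-drug fitness values inferred from the combination data. Fitness is the OD595 at the onset of stationary phase over the plate's robust no-drug mean, capped at 1. Scores are summarised by quartiles over technical, biological and donor/recipient replicates.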

A further assay relates to S. aureus DSM 20231. The method, boiled down: as §1
A further assay has as its system B. subtilis 168. The method, boiled down: as §1
The subject of the next assay is S. pneumoniae D39V. The method, boiled down: as §1
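Note: first quartile when negative (synergy) and third quartile when positive (antagonism).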

Regarding `CO[C@@]12[C@H](COC(N)=O)C3=C(C(=O)C(C)=C(N)C3=O)N1C[C@@H]1N[C@@H]12` [MitomycinC] + CN(N=O)C(=O)N[C@@H](C=O)[C@@H](O)[C@H](O)[C@H](O)CO [Streptozotocin], the Bliss interaction score in the assay with S. aureus Newman is 0.0483; with S. aureus DSM 20231 it was 0.0493; in the assay with B. subtilis 168, -0.037; with S. pneumoniae D39V it was -0.0613.
The like results for `CN[C@H](CC(C)C)C(=O)N[C@H]1C(=O)N[C@@H](CC(N)=O)C(=O)N[C@H]2C(=O)N[C@H]3C(=O)N[C@H](C(=O)N[C@H](C(=O)O)c4cc(O)cc(O)c4-c4cc3ccc4O)[C@H](O[C@H]3C[C@](C)(N)[C@@H](O)[C@H](C)O3)c3ccc(c(Cl)c3)Oc3cc2cc(c3O[C@@H]2O[C@H](CO)[C@@H](O)[C@H](O)[C@H]2O[C@H]2C[C@](C)(NCc3ccc(-c4ccc(Cl)cc4)cc3)[C@@H](O)[C@H](C)O2)Oc2ccc(cc2Cl)[C@H]1O` [Oritavancin] + COc1cc(Cc2cnc(N)nc2N)cc(OC)c1OC [Trimethoprim] were, in that order, -0.111, -0.0406, 0.0391 and 0.078.
Turning to `CN[C@H](CC(C)C)C(=O)N[C@H]1C(=O)N[C@@H](CC(N)=O)C(=O)N[C@H]2C(=O)N[C@H]3C(=O)N[C@H](C(=O)N[C@H](C(=O)O)c4cc(O)cc(O)c4-c4cc3ccc4O)[C@H](O[C@H]3C[C@](C)(N)[C@@H](O)[C@H](C)O3)c3ccc(c(Cl)c3)Oc3cc2cc(c3O[C@@H]2O[C@H](CO)[C@@H](O)[C@H](O)[C@H]2O[C@H]2C[C@](C)(NCc3ccc(-c4ccc(Cl)cc4)cc3)[C@@H](O)[C@H](C)O2)Oc2ccc(cc2Cl)[C@H]1O` [Oritavancin] + CN[C@H](CC(C)C)C(=O)N[C@H]1C(=O)N[C@@H](CC(N)=O)C(=O)N[C@H]2C(=O)N[C@H]3C(=O)N[C@H](C(=O)N[C@H](C(=O)O)c4cc(O)cc(O)c4-c4cc3ccc4O)[C@H](O)c3ccc(c(Cl)c3)Oc3cc2cc(c3O[C@@H]2O[C@H](CO)[C@@H](O)[C@H](O)[C@H]2O[C@H]2C[C@](C)(N)[C@H](O)[C@H](C)O2)Oc2ccc(cc2Cl)[C@H]1O [Vancomycin], the Bliss interaction score in the assay with S. aureus Newman is -0.0787; with S. aureus DSM 20231 it was -0.0879; with B. subtilis 168, 0.0254; with S. pneumoniae D39V it was 0.105.
As to `CC[C@H](C)[C@H](N)C1=N[C@H](C(=O)N[C@@H](CC(C)C)C(=O)N[C@H](CCC(=O)O)C(=O)N[C@H](C(=O)N[C@H]2CCCCNC(=O)[C@H](CC(N)=O)NC(=O)[C@@H](CC(=O)O)NC(=O)[C@H](Cc3cnc[nH]3)NC(=O)[C@@H](Cc3ccccc3)NC(=O)[C@H]([C@@H](C)CC)NC(=O)[C@@H](CCCN)NC2=O)[C@@H](C)CC)CS1` [Bacitracin] + CC1(C)S[C@@H]2[C@H](NC(=O)Cc3ccccc3)C(=O)N2[C@H]1C(=O)O [PenicillinG], the Bliss interaction score with S. aureus Newman (main component drawn) is 0.0689; in the assay with S. aureus DSM 20231 (main component drawn), 0.0263; in the assay with B. subtilis 168 (main component drawn), -0.164; with S. pneumoniae D39V (main component drawn) it was -0.0799.
Regarding `CC[C@H]1OC(=O)[C@H](C)[C@@H](O[C@H]2C[C@@](C)(OC)[C@@H](O)[C@H](C)O2)[C@H](C)[C@@H](O[C@@H]2O[C@H](C)C[C@H](N(C)C)[C@H]2O)[C@](C)(O)C[C@@H](C)C(=O)[C@H](C)[C@@H](O)[C@]1(C)O` [Erythromycin] + C/C(=C\C(=O)OCCCCCCCCC(=O)O)C[C@@H]1OC[C@H](C[C@@H]2O[C@H]2[C@@H](C)[C@H](C)O)[C@@H](O)[C@H]1O [Pseudomonic acid], the Bliss interaction score is -0.0171 in the assay with S. aureus Newman, -0.0124 with S. aureus DSM 20231, 0.0626 in the assay on B. subtilis 168 and 0.0664 in the assay with S. pneumoniae D39V.
For `CC[C@H]1OC(=O)[C@H](C)[C@@H](O[C@H]2C[C@@](C)(OC)[C@@H](O)[C@H](C)O2)[C@H](C)[C@@H](O[C@@H]2O[C@H](C)C[C@H](N(C)C)[C@H]2O)[C@](C)(O)C[C@@H](C)C(=O)[C@H](C)[C@@H](O)[C@]1(C)O` [Erythromycin] + C[C@H]1COc2c(N3CCN(C)CC3)c(F)cc3c(=O)c(C(=O)O)cn1c23 [Levofloxacin] the same measures were 0.0478, 0.0327, 0.041 and 0.0979.
With `CN[C@H](CC(C)C)C(=O)N[C@H]1C(=O)N[C@@H](CC(N)=O)C(=O)N[C@H]2C(=O)N[C@H]3C(=O)N[C@H](C(=O)N[C@H](C(=O)O)c4cc(O)cc(O)c4-c4cc3ccc4O)[C@H](O[C@H]3C[C@](C)(N)[C@@H](O)[C@H](C)O3)c3ccc(c(Cl)c3)Oc3cc2cc(c3O[C@@H]2O[C@H](CO)[C@@H](O)[C@H](O)[C@H]2O[C@H]2C[C@](C)(NCc3ccc(-c4ccc(Cl)cc4)cc3)[C@@H](O)[C@H](C)O2)Oc2ccc(cc2Cl)[C@H]1O` [Oritavancin] + CC1=C\[C@@H](O)CC(=O)Cc2nc(co2)C(=O)N2CCC=C2C(=O)O[C@H](C(C)C)[C@H](C)/C=C/C(=O)NC\C=C\1 [Virginiamycin M1], the Bliss interaction score with S. aureus Newman is -0.0713; with S. aureus DSM 20231, -0.0348; in the assay with B. subtilis 168, -0.0178; in the assay on S. pneumoniae D39V, 0.0739.
For `CN[C@H](CC(C)C)C(=O)N[C@H]1C(=O)N[C@@H](CC(N)=O)C(=O)N[C@H]2C(=O)N[C@H]3C(=O)N[C@H](C(=O)N[C@H](C(=O)O)c4cc(O)cc(O)c4-c4cc3ccc4O)[C@H](O[C@H]3C[C@](C)(N)[C@@H](O)[C@H](C)O3)c3ccc(c(Cl)c3)Oc3cc2cc(c3O[C@@H]2O[C@H](CO)[C@@H](O)[C@H](O)[C@H]2O[C@H]2C[C@](C)(NCc3ccc(-c4ccc(Cl)cc4)cc3)[C@@H](O)[C@H](C)O2)Oc2ccc(cc2Cl)[C@H]1O` [Oritavancin] + C[n+]1ccc(-c2cc[n+](C)cc2)cc1 [Paraquat] the same measures were -0.065, -0.0738, -0.0221 and -0.044.

The values above are taken from the supplement of paper PMC10627819.
